Experimental findings from patent publication US20020150915A1, “Promoter sequences” (priority 2000, published 2002) are described below.

SMILES strings stand for the structures.

For the data set, the target named is T1, CAR (Homo sapiens, UniProt Q14994).
T1 construct: amplifying full-length CAR by RT-PCR from total RNA prepared from C3A/HepG2 cells; expressed in transfected cells; host or cells: C3A cells (HepG2 derivative), transient transfection with pcDNA3-hCAR
T1 sequence (Q14994 1-348 isoform Q14994-2): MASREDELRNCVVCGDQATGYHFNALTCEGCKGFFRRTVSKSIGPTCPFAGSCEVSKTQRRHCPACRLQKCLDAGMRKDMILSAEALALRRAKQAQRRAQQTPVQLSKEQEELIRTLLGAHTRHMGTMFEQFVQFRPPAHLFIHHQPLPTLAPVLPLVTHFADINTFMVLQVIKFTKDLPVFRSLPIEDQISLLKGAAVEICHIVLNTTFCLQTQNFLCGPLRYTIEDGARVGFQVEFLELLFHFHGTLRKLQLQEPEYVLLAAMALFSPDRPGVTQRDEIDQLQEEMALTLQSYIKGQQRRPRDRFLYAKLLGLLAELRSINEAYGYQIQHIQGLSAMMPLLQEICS
Briefly: Cell based CYP3A7 promoter-luciferase reporter assay with CAR expression vector. The settings on record: C3A cells transfected with CYP3A7-9302 reporter and CAR expression vector; 10 μM compound, 48 hours; FIG. 3.

Method: C3A cells were transfected with Cyp3A7 promoter with (Cyp3A7-9302) or without (CYP3A7-7478) the XREM and with CAR expression vector (CAR) or with empty (pcDNA3) expression vector. Cells were treated with vehicle (DMSO) or 10 μM of rifampicin or clotrimasol. Relative luciferase values represent luciferase activity compensated for the alkaline phosphatase reporter. The data are mean values +/−SD for six wells of a typical experiment
Six well plates were seeded with 0.5×10^6 C3A cells. The cells were maintained in MEM with phenol red containing L-glutamine and supplemented with nonessential amino acids. The medium also contained 10% foetal bovine serum (life Technologies). The cells were allowed to settle for 24 hours before the medium was replaced by medium containing 10% charcoal treated foetal bovine serum (Hyclone Laboratories). Each well was transfected with 0.1 μg RSV-AF, 2 μg of the indicated reporter and 0.5 μg of the expression vector for PAR-2, CAR or the empty expression vector, pcDNA3. FuGENE 6™ Transfection Reagent (Roche) was used according to recommendations from the manufacturer. After 24 hours the medium was replaced by fresh medium containing 10% charcoal treated foetal bovine serum. […] After induction for 48 hours the medium was analysed for the alkaline phosphatase activity and the luciferase activity was measured in the cell lysate as described (Bertilsson et al., 1998). […]

On to `Clc1ccccc1C(c1ccccc1)(c1ccccc1)n1ccnc1` [clotrimazole], for which the “CAR dependent induction of CYP3A7 reporter” value is “reduced”.
